From patent US20240325369A1 (priority 2021, published 2024)

Description: Efficacy objectives were evaluated for subjects meeting the biomarker selection criteria described in the protocol. All subjects were monitored for safety during the study period, and up to 30 days after the last dose of study drug. Treatment continued until disease progression, unacceptable toxicity, death, or termination of the study by the sponsor.
Serum PSA, CTCs, survival status, SSEs were also collected. PROs included the BPI-SF, FACT-P, and EQ-5D-5L questionnaires. Safety assessments included recording of AEs, physical examinations, vital signs, ECGs, and ECOG performance status. Clinical laboratory testing included hematology, blood chemistry, and liver function parameters. Blood samples were also taken for pharmacokinetic assessments and biomarker analysis. Archival or recently collected tumor tissue samples were obtained from consenting subjects for biomarker identification.
All AEs reported on or after the date of first dose until 30 days (inclusive) after the last dose of study drug were considered treatment-emergent and were summarized. […] In addition. AE incidence rates were also summarized by severity and relationship to study drug. Treatment-related AEs were those judged by the investigator to beat least possibly related to the study drug. […] Deaths that occurred within 30 days after the last dose of study drug were defined as on-study deaths. No inferential statistical analyses were performed in analyzing the safety data.

[1] = safety population (289 subjects)
[2] = safety population (289 subjects), 300 mg once daily
[3] = safety population (289 subjects), data cutoff 26 Jan. 2021
[4] = safety population, 300 mg once daily

NC(=O)c1cccc2cn(-c3ccc([C@@H]4CCCNC4)cc3)nc12 [Niraparib, 2-[4-[(3S)-piperidin-3-yl]phenyl]-2H-indazole-7-carboxamide]
Treatment discontinuation because of adverse events (reason for discontinuation) (289 enrolled subjects, clinical data cutoff 26 Jan. 2021): 14% | Safety profile (heavily pre-treated prostate cancer population): manageable | Deaths due to treatment-emergent AEs, % of subjects [1]: 5.5% | Deaths due to treatment-emergent AEs, number of subjects [1]: 16 | Deaths within 30 days of the last dose due to progressive disease, % of subjects [1]: 6% | Deaths within 30 days of the last dose due to progressive disease, number of subjects [1]: 17 | AEs leading to treatment discontinuation, % of subjects [2]: 22.8% | Adverse event of clinical interest (all grades): anemia [2]: 54.0% | Adverse event of clinical interest (all grades): febrile neutropenia [2]: 1.0% | Adverse event of clinical interest (all grades): neutropenia [2]: 19.4% | Adverse event of clinical interest (all grades): thrombocytopenia [2]: 34.3% | Grade 3 or 4 AE: anemia [2]: 32.9% | Grade 3 or 4 AE: fatigue [2]: 6.6% | Grade 3 or 4 AE: nausea [2]: 5.2% | Grade 3 or 4 AE: neutropenia [2]: 9.7% | Grade 3 or 4 AE: thrombocytopenia [2]: 16.3% | Grade 3 or 4 AEs, % of subjects [2]: 75.1% | Grade 4 AE: thrombocytopenia, % of subjects [2]: 8.0% | Grade 4 AE: thrombocytopenia, number of subjects [2]: 23 | Subjects reporting SAEs [2]: 46.4% | Subjects who experienced at least 1 AE [2]: 99.7% | Subjects who reported a related AE [2]: 90% | Deaths within 30 days of the last dose of study drug, % of subjects [3]: 9% | Deaths within 30 days of the last dose of study drug, number of subjects [3]: 26 | Grade 3 or 4 clinical chemistry value: hyperkalemia [4]: 2.5% | Grade 3 or 4 clinical chemistry value: hyponatremia [4]: 3.2% | Grade 3 or 4 clinical chemistry value: increased GGT [4]: 5.0% | Grade 3 or 4 clinical chemistry value: increased alkaline phosphatase [4]: 2.5% | Grade 3 or 4 hematology value: anemia [4]: 17.0% | Grade 3 or 4 hematology value: decreased lymphocyte count [4]: 18.4%
